Data reported in ChEMBL document CHEMBL4354807, “Natural Product Albiziabioside A Conjugated with Pyruvate Dehydrogenase Kinase Inhibitor Dichloroacetate To Induce Apoptosis-Ferroptosis-M2-TAMs Polarization for Combined Cancer Therapy” (J Med Chem, 2019).
The source made the active and inactive calls. The calls are words filed in the database; no cut-off is given here.

How the values were obtained:
MCF7 [1] = test: Induction of ROS generation in human MCF7 cells assessed as ROS level at 2 uM after 24 hrs by DCFDA-fluorescence based flow cytometry (reference value: 6.57 %); format: functional
4T1 [2] = test: Inhibition of glycolysis in mouse 4T1 cells expressing PDK assessed as reduction in extracellular lactate level at 2 uM after 6 hrs by microplate reader assay; format: functional, cell-based
MCF7 [3] = test: Induction of apoptosis in human MCF7 cells assessed as increase in caspase 9 expression at 2 uM after 48 hrs by Western blot analysis relative to control; format: functional
MCF7 [4] = test: Cytotoxicity against human MCF7 cells assessed as cell death at 2 uM pretreated with Z-VAD-fmk followed by compound addition by MTT assay; format: functional, cell-based
A-375 = test: Anticancer activity against human A375 cells expressing PDK assessed as reduction in cell viability after 72 hrs by MTT assay; format: functional, cell-based; conditions: A-375, 72 h
MCF7 [5] = test: Induction of ferroptosis in human MCF7 cells assessed as reduction in cellular GSH level at 2 uM after 24 hrs by microplate reader assay; format: functional, cell-based
MCF7 [6] = test: Effect on lipid peroxidation in human MCF7 cells assessed as increase in […] at 2 uM after 15 mins by BODIPY-C11 dye based fluorescence imaging analysis relative to control; format: functional
[7] = Toxicity in BALB/c nude mouse xenografted with human MCF7 cells assessed as effect on ALT level in blood at 2 mg/kg, iv administered every 2 days for 2 weeks measured after 14 days; format: organism-based; conditions: in vivo, 336 h
[8] = Toxicity in BALB/c nude mouse xenografted with human MCF7 cells assessed as effect on AST level in blood at 2 mg/kg, iv administered every 2 days for 2 weeks measured after 14 days; format: organism-based; conditions: in vivo, 336 h
[9] = Toxicity in BALB/c nude mouse xenografted with human MCF7 cells assessed as effect on spleen at 2 mg/kg, iv administered every 2 days for 2 weeks measured after 14 days by hematoxylin and eosin staining based histopathological analysis; format: organism-based; conditions: in vivo, 336 h
4T1 [10] = test: Induction of M2-TAM polarization in mouse 4T1 cells assessed as decrease in Arg1 mRNA expression at 2 uM after 48 hrs by Western blot analysis relative to control; format: functional

CC1(C)CC[C@]2(C(=O)O)CC[C@]3(C)C(=CC[C@@H]4[C@@]5(C)CC[C@H](O[C@@H]6O[C@H](CO[C@@H]7OC[C@H](O)[C@H](O)[C@H]7O)[C@@H](O)[C@H](O)[C@H]6NC(=O)C(Cl)Cl)C(C)(C)[C@@H]5CC[C@]43C)[C@@H]2C1
Activity (MCF7 [1]): 44.19%
inhibition (4T1 [2]): Active
fold change (FC) (MCF7 [3]): 6
Activity (MCF7 [4]): inactive
IC50 (A-375): 3.78 µM
Activity (MCF7 [5]): Active
fold change (FC) (MCF7 [6]): 2.5
Activity [7]: Non-Toxic
Activity [8]: Non-Toxic
Activity [9]: Non-Toxic
fold change (FC) (4T1 [10]): 2.1
